Test results reported in patent US9655887B2, “Pharmaceutical composition and the use thereof, and application regime of said pharmaceutical composition for on-demand contraception” (BAYER PHARMA AKTIENGESELLSCHAFT, priority 2013, dated 2017).

biological target: EP2 subtype of the human PGE2 receptor (hEP2 receptor) (Homo sapiens, UniProt P43116); assay: cAMP antagonism test, human prostaglandin E2 (subtype EP2) receptor signal; format: cell-based
Description: 1. Detection of Antagonism to the Human Prostaglandin E2 (Subtype EP2) Receptor Signal
The binding of PGE2 to the EP2 subtype of the human PGE2 receptor induces the activation of membrane-located adenylate cyclases and leads to the formation of cAMP. In the presence of the phosphodiesterase inhibitor IBMX, the cAMP accumulated owing to this stimulation and released by cell lysis is used in a competitive detection method. In this test, the cAMP present in the lysate competes with a fluorescence-labelled cAMP (cAMP-d2) for binding to an Eu cryptate-labelled anti-cAMP antibody.
In the absence of cellular cAMP, a maximal signal is produced, which is attributable to the binding of this cAMP-d2 molecule to the antibody. After excitation of the […] at 337 nm, there is a fluorescence resonance energy transfer (FRET) to the Eu cryptate molecules of the anti-cAMP antibody (labelled therewith), followed by a long-lasting emission signal at 665 nm (and at […]). Both signals are measured in a suitable measurement instrument with a time delay, i.e. after decay of the background fluorescence. Any increase in the low FRET signal caused by prostaglandin E2 administration (measured as well ratio change=emission665nm/emission620nm*10000) indicates the action of antagonists.
1.2.1. Test for Antagonism (Data Per Well of a 384-Well Plate):
To a test plate with the substance solutions already added (0.05 μl; 100% DMSO, concentration range from 0.8 nM-16.5 nM) were added 4 μl of a cAMP-d2/cell suspension (625000 cells/ml). After a 20-minute preincubation at room temperature (RT), 2 μl of a 3×PGE2 solution (1.5 nM, in PBS-IBMX) were added and incubated in the presence of the agonist for a further 60 mins at RT (volume: […]). Next the reaction was stopped by addition of 2 μl of lysis buffer and incubated for a further 20 mins at RT before the actual measurement (volume: ˜8 μl).

Chain of EP2 subtype of the human PGE2 receptor (hEP2 receptor) (P43116 whole entry): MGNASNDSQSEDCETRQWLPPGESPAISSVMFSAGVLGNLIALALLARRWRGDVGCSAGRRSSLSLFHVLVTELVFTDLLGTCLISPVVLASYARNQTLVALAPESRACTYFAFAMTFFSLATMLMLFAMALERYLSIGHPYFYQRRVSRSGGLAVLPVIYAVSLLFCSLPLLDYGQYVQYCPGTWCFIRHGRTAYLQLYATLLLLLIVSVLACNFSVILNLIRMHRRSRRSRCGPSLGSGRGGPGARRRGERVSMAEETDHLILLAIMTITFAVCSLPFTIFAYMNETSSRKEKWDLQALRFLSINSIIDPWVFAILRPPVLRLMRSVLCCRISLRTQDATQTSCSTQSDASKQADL

| IC50 [nM] | Structure (SMILES) |
| --- | --- |
| > 50 | Cc1ccc(C(=O)N2CCC(Cn3cc4c(C)c(C(=O)NCCOC(C)C)ccc4n3)CC2)cc1 [Example E72, N-(2-isopropoxyethyl)-4-methyl-2-{[1-(4-methylbenzoyl)piperidin-4-yl]methyl}-2H-indazole-5-carboxamide] |
| > 50 | Cc1c(C(=O)NCCOC(C)C)ccc2nn(CC3CCN(C(=O)c4ccc(Oc5ccc(F)cc5)cc4)CC3)cc12 [Example E73, 2-({1-[4-(4-fluorophenoxy)benzoyl]piperidin-4-yl}methyl)-N-(2-isopropoxyethyl)-4-methyl-2H-indazole-5-carboxamide] |
| > 50 | Cc1c(C(=O)NCCOC(C)C)ccc2nn(CC3CCN(C(=O)c4ccc(C(F)(F)F)cc4)CC3)cc12 [Example E74, N-(2-isopropoxyethyl)-4-methyl-2-({1-[4-(trifluoromethyl)benzoyl]piperidin-4-yl}-methyl)-2H-indazole-5-carboxamide] |
| > 50 | Cc1c(C(=O)NCCOC(C)C)ccc2nn(CC3CCN(C(=O)c4ccc(-c5ccc(F)cc5)cc4)CC3)cc12 [Example E75, 2-({1-[(4′-fluorobiphenyl-4-yl)carbonyl]piperidin-4-yl}methyl)-N-(2-isopropoxyethyl)-4-methyl-2H-indazole-5-carboxamide] |
| > 50 | Cc1c(C(=O)NCCOC(C)C)ccc2nn(CC3CCN(C(=O)c4ccc(C5CC5)cc4)CC3)cc12 [Example E76, 2-{[1-(4-cyclopropylbenzoyl)piperidin-4-yl]methyl}-N-(2-isopropoxyethyl)-4-methyl-2H-indazole-5-carboxamide] |
| > 50 | Cc1c(C(=O)NCCOC(F)(F)F)ccc2nn(CC3CCN(C(=O)c4ccc(Cl)cc4)CC3)cc12 [Example E77, 2-{[1-(4-chlorobenzoyl)piperidin-4-yl]methyl}-4-methyl-N-[2-(trifluoromethoxy)ethyl]-2H-indazole-5-carboxamide] |
| > 50 | Cc1c(C(=O)NCCOC(F)(F)F)ccc2nn(CC3CCN(C(=O)c4ccc(Oc5ccc(F)cc5)cc4)CC3)cc12 [Example E78, 2-({1-[4-(4-fluorophenoxy)benzoyl]piperidin-4-yl}methyl)-4-methyl-N-[2-(trifluoro-methoxy)ethyl]-2H-indazole-5-carboxamide] |
| > 50 | Cc1c(C(=O)NCCOC(F)(F)F)ccc2nn(CC3CCN(C(=O)c4ccc(-c5ccc(F)cc5)cc4)CC3)cc12 [Example E79, 2-({1-[(4′-fluorobiphenyl-4-yl)carbonyl]piperidin-4-yl}methyl)-4-methyl-N-[2-(trifluoromethoxy)ethyl]-2H-indazole-5-carboxamide] |
| > 50 | [2H]C([2H])([2H])OC([2H])([2H])C([2H])([2H])NC(=O)c1ccc2nn(CC3CCN(C(=O)c4ccc(Cl)cc4)CC3)cc2c1C [Example E85, 2-{[1-(4-chlorobenzoyl)piperidin-4-yl]methyl}-4-methyl-N-{2-[(^2H3)methyloxy]-(^2H4)ethyl}-2H-indazole-5-carboxamide] |
| > 50 | [2H]C([2H])([2H])OC([2H])([2H])C([2H])([2H])NC(=O)c1ccc2nn(CC3CCN(C(=O)c4ccc(Oc5ccc(F)cc5)cc4)CC3)cc2c1C [Example E86, 2-({1-[4-(4-fluorophenoxy)benzoyl]piperidin-4-yl}methyl)-4-methyl-N-{2-[(^2H3)methyloxy](^2H4)ethyl}-2H-indazole-5-carboxamide] |
| > 50 | COCCNC(=O)c1ccc2nn(CC3CN(C(=O)c4ccc(Cl)cc4)C3)cc2c1C [Example E87, 2-{[1-(4-chlorobenzoyl)azetidin-3-yl]methyl}-N-(2-methoxyethyl)-4-methyl-2H-indazole-5-carboxamide] |
| > 50 | COCCNC(=O)c1ccc2nn(CC3CN(C(=O)c4ccc(C5CC5)cc4)C3)cc2c1C [Example E94, 2-{[1-(4-cyclopropylbenzoyl)azetidin-3-yl]methyl}-N-(2-methoxyethyl)-4-methyl-2H-indazole-5-carboxamide] |
| > 50 | Cc1c(C(=O)NCCOCC2CC2)ccc2nn(CC3CN(C(=O)c4ccc(Cl)cc4)C3)cc12 [Example E102, 2-{[1-(4-chlorobenzoyl)azetidin-3-yl]methyl}-N-[2-(cyclopropylmethoxy)ethyl]-4-methyl-2H-indazole-5-carboxamide] |

The next lines start with the compound.

| Structure (SMILES) | IC50 [nM] |
| --- | --- |
| Cc1c(C(=O)NCCOC(F)(F)F)ccc2nn(CC3CCN(C(=O)c4ccc(Oc5ccc(C(F)(F)F)cc5)cc4)CC3)cc12 [Example E80, 4-methyl-N-[2-(trifluoromethoxy)ethyl]-2-[(1-{4-[4-(trifluoromethyl)phenoxy]-benzoyl}piperidin-4-yl)methyl]-2H-indazole-5-carboxamide] | > 50 |
| Cc1c(C(=O)NCCOC(C)(C)C)ccc2nn(CC3CCN(C(=O)c4ccc(Cl)cc4)CC3)cc12 [Example E81, N-(2-tert-butoxyethyl)-2-{[1-(4-chlorobenzoyl)piperidin-4-yl]methyl}-4-methyl-2H-indazole-5-carboxamide] | > 50 |
| Cc1c(C(=O)NCCOC(C)(C)C)ccc2nn(CC3CCN(C(=O)c4ccc(Oc5ccc(F)cc5)cc4)CC3)cc12 [Example E82, N-(2-tert-butoxyethyl)-2-({1-[4-(4-fluorophenoxy)benzoyl]piperidin-4-yl}methyl)-4-methyl-2H-indazole-5-carboxamide] | > 50 |
| Cc1c(C(=O)NCCOC(C)(C)C)ccc2nn(CC3CCN(C(=O)c4ccc(-c5ccc(F)cc5)cc4)CC3)cc12 [Example E83, N-(2-tert-butoxyethyl)-2-({1-[(4′-fluorobiphenyl-4-yl)carbonyl]piperidin-4-yl}methyl)-4-methyl-2H-indazole-5-carboxamide] | > 50 |
| Cc1c(C(=O)NCCOC(C)(C)C)ccc2nn(CC3CCN(C(=O)c4ccc(Oc5ccc(C(F)(F)F)cc5)cc4)CC3)cc12 [Example E84, N-(2-tert-butoxyethyl)-4-methyl-2-[(1-{4-[4-(trifluoromethyl)phenoxy]benzoyl}-piperidin-4-yl)methyl]-2H-indazole-5-carboxamide] | > 50 |
| COCCNC(=O)c1ccc2nn(CC3CN(C(=O)c4ccc(SC(F)(F)F)cc4)C3)cc2c1C [Example E88, N-(2-methoxyethyl)-4-methyl-2-[(1-{4-[(trifluoromethyl)sulphanyl]benzoyl}azetidin-3-yl)methyl]-2H-indazole-5-carboxamide] | > 50 |
| COCCNC(=O)c1ccc2nn(CC3CN(C(=O)c4ccc(OC(F)(F)F)cc4)C3)cc2c1C [Example E89, N-(2-methoxyethyl)-4-methyl-2-({1-[4-(trifluoromethoxy)benzoyl]azetidin-3-yl}-methyl)-2H-indazole-5-carboxamide] | > 50 |
| COCCNC(=O)c1ccc2nn(CC3CN(C(=O)c4ccc(C(F)(F)F)cc4F)C3)cc2c1C [Example E90, 2-({1-[2-fluoro-4-(trifluoromethyl)benzoyl]azetidin-3-yl}methyl)-N-(2-methoxyethyl)-4-methyl-2H-indazole-5-carboxamide] | > 50 |
| COCCNC(=O)c1ccc2nn(CC3CN(C(=O)c4ccc(Cl)cc4F)C3)cc2c1C [Example E91, 2-{[1-(4-chloro-2-fluorobenzoyl)azetidin-3-yl]methyl}-N-(2-methoxyethyl)-4-methyl-2H-indazole-5-carboxamide] | > 50 |
| COCCNC(=O)c1ccc2nn(CC3CN(C(=O)c4ccc(C(F)(F)F)c(F)c4)C3)cc2c1C [Example E92, 2-({1-[3-fluoro-4-(trifluoromethyl)benzoyl]azetidin-3-yl}methyl)-N-(2-methoxyethyl)-4-methyl-2H-indazole-5-carboxamide] | > 50 |
| COCCNC(=O)c1ccc2nn(CC3CN(C(=O)c4ccc(Cl)c(C(F)(F)F)c4)C3)cc2c1C [Example E93, 2-({1-[4-chloro-3-(trifluoromethyl)benzoyl]azetidin-3-yl}methyl)-N-(2-methoxyethyl)-4-methyl-2H-indazole-5-carboxamide] | > 50 |
| COCCNC(=O)c1ccc2nn(CC3CN(C(=O)c4ccc(Oc5ccc(C(F)(F)F)cc5)cc4)C3)cc2c1C [Example E95, N-(2-methoxyethyl)-4-methyl-2-[(1-{4-[4-(trifluoromethyl)phenoxy]benzoyl}azetidin-3-yl)methyl]-2H-indazole-5-carboxamide] | > 50 |
| Cc1c(C(=O)NCCOC2CC2)ccc2nn(CC3CN(C(=O)c4ccc(OC(F)(F)F)cc4)C3)cc12 [Example E100, N-[2-(cyclopropyloxy)ethyl]-4-methyl-2-({1-[4-(trifluoromethoxy)benzoyl]azetidin-3-yl}methyl)-2H-indazole-5-carboxamide] | > 50 |
| Cc1c(C(=O)NCCOC2CCC2)ccc2nn(CC3CN(C(=O)c4ccc(OC(F)(F)F)cc4)C3)cc12 [Example E101, N-[2-(cyclobutyloxy)ethyl]-4-methyl-2-({1-[4-(trifluoromethoxy)benzoyl]azetidin-3-yl}methyl)-2H-indazole-5-carboxamide] | > 50 |
